# Test results from patent US8574925B2, “Fluorescence analysis method using fluorescent-activating antibodies” (Hamamatsu Photonics K.K., priority 2002, dated 2013).
# How the values were obtained:
# Format in all cases: binding, guinea pig
# anti-MG-Ins IgG = assay: Fluorescence spectrum of auramine O bound to the anti-MG-Ins IgG; settings: IgG 1 μM, AO 1 μM, PBS pH 7.2, 25° C., excitation 400 nm; FIG. 14
# Method: The fluorescence spectrum of AO when AO is bound to the anti-MG-Ins IgG by an antigen-antibody reaction was measured as follows. The anti-MG-Ins IgG and AO were mixed so that the respective concentrations will be 1 μM and 1 μM (using phosphate buffered saline (pH 7.2, PBS) as the solvent). An antigen-antibody reaction was made to proceed by stirring for five minutes at 25° C. Then using the fluorescence spectrophotometer, the fluorescence spectrum emitted from the above-described mixed solution was measured under the conditions of an excitation wavelength of 400 nm, fluorescence wavelength of 450 to 650 nm, and bandpass width being set to 5 nm at both the excitation and fluorescence sides.
# anti-MG-Ins Fab [1] = assay: Fluorescence spectrum of malachite green bound to the anti-MG-Ins Fab; settings: Fab 0.955 μM, MG 0.907 μM, PBS pH 7.2, 25° C., excitation 620 nm; FIG. 11
# Method: The fluorescence spectrum of MG when MG is bound to the anti-MG-Ins Fab by an antigen-antibody reaction was measured as follows. The anti-MG-Ins Fab and MG were mixed so that the respective concentrations will be 0.955 μM and 0.907 μM (using phosphate buffered saline (pH 7.2, PBS) as the solvent). Then, an antigen-antibody reaction was made to proceed by stirring for five minutes at 25° C. Then using the fluorescence spectrophotometer, the fluorescence spectrum emitted from the above-described mixed solution was measured under the conditions of an excitation wavelength of 620 nm, fluorescence wavelength of 630 to 750 nm, and bandpass width being set to 5 nm at both the excitation and fluorescence sides.
# Fluorescence spectra were also measured in the same manner as the above for various MG concentrations in the range of 0 to 0.9 μM with the anti-MG-Ins Fab concentration being set at 1 μM.
# anti-MG-Ins Fab [2] = assay: Calibration curve: insulin concentration vs MG fluorescence intensity with anti-MG-Ins Fab and malachite green; settings: 1 μM anti-MG-Ins Fab, 0.4 μM MG, excitation 620 nm, fluorescence 650 nm; FIG. 13
# Method: A calibration curve, indicating the relationship between the insulin concentration and fluorescence intensity for a fixed amount (1 μM) of the anti-MG-Ins Fab and a fixed amount (0.4 μM) of MG, was prepared as follows. Since the insulin used forms aggregate of a few molecules because of containing zinc, the insulin was dissolved in advance in PB containing SDS at a final concentration of 0.1% to dissociate the aggregate. The insulin solution thus obtained was thereafter run through a gel permeation column (Fast Desaliting Column HR 10/10, made by Pharnacia), equilibrated using PBS. The insulin solution from which SDS was thus removed was used in the following quantification. • (1) The fluorescence spectrophotometer was set to an excitation wavelength of 620 nm and a fluorescence wavelength of 650 nm and the temperature of the cell holder was maintained at a fixed temperature (25° C.). • (2) 2 ml (A=2 ml) of an antibody-dye solution, containing 1 μM (Y=1 μM) of the anti-MG-Ins Fab and 0.4 μM (Z=0.4 μM) of MG, were prepared (with phosphate buffered saline (pH 7.2, PBS) as the solvent) (S101). • (3) The antibody-dye solution thus obtained was placed in a standard fluorescence measurement cell. This cell was set in the fluorescence spectrophotometer. The solution in the cell was stirred for 30 seconds with a micro stirring bar. […]
# anti-MG-Ins Fab [3] = assay: Calibration curve: insulin concentration vs AO fluorescence intensity with anti-MG-Ins Fab and auramine O; settings: 2 μM anti-MG-Ins Fab, 0.4 μM AO, excitation 400 nm, fluorescence 520 nm; FIG. 15
# Method: A calibration curve was prepared for insulin concentrations in the range of 0 to 7.7 μM in the same manner as described above in [1-10-1] other than the changes of setting the anti-MG-Ins Fab concentration to 2 μM, using 0.4 μM of auramine O in place of 0.4 μM of malachite green, setting the excitation wavelength to 400 nm, and setting the fluorescence wavelength to 520 nm.
# anti-MG-Ins Fab [4] = assay: Verification test concerning the reversibility of the antigen-antibody reactions (AO fluorescence)
# Method: The following experiment was carried out in order to confirm that, when the free insulin concentration in the same sample is varied by repeating the addition of insulin and the addition of anti-porcine insulin IgG (referred to hereinafter as “anti-insulin IgG”) in a solution containing the anti-MG-Ins Fab and auramine O, the measurement values of this invention vary following the variation of the free insulin concentration, that is, the antigen-antibody reactions concerning this invention are reversible and enable analysis in real time. The measurement of fluorescence intensity was carried out under the same measurement conditions as described above in [2-2-1].
# First, 2 ml of a PBS solution, containing 2 μM of the anti-MG-Ins Fab and 0.4 μM of auramine O, were prepared. The AO fluorescence intensity was measured upon placing the solution in a cell. The florescence intensity at this time was set to a relative value of 1.
# Insulin was then added to the solution in the cell so that the insulin concentration will be 1.26 μM.
# A fixed amount (0.135 μM) of the anti-insulin IgG was then added to this solution. […] The AO fluorescence intensity returned to the original value since the anti-insulin IgG and insulin became bonded and free insulin no longer existed in the solution.
# When insulin was then added again to this solution so that the insulin concentration will be 2.39 μM.
compound,measurement,setting,value
CN(C)c1ccc(C(=N)c2ccc(N(C)C)cc2)cc1 [auramine O],fluorescence upon binding with the anti-MG-Ins IgG,anti-MG-Ins IgG,became fluorescent
CN(C)c1ccc(C(=C2C=CC(=[N+](C)C)C=C2)c2ccccc2)cc1 [malachite green],fluorescence upon binding with the anti-MG-Ins Fab,anti-MG-Ins Fab [1],became fluorescent
insulin,change of malachite green fluorescence intensity with increase of insulin concentration,anti-MG-Ins Fab [2],enhancement of fluorescence occurs
same,change of auramine O fluorescence intensity with increase of insulin concentration,anti-MG-Ins Fab [3],inhibition of fluorescence occurs
same,relative value of the AO fluorescence intensity,anti-MG-Ins Fab [4]; insulin added again to 2.39 μM,decreased again
same,relative value of the AO fluorescence intensity,anti-MG-Ins Fab [4]; insulin added again to 3.37 μM,decreased
same,relative value of the AO fluorescence intensity,"anti-MG-Ins Fab [4]; insulin added to 1.26 μM, 2 μM anti-MG-Ins Fab, 0.4 μM AO, start value 1",approximately 0.97
